# Laboratory results from patent publication US20100035925A1, “COMPOUNDS, PHARMACEUTICAL CO[…] DMETHODS FOR […] INFECTIVITY” ([…], INC, priority 2004, published 2010).
# Assays:
# [1] = tested on: transfected 293 cells
# [2] = tested on: HIV drug resistant strains (pL10R and p1617-1); format: cell-based
SMILES,cytotoxicity [1],inhibitory activity on HIV infectivity (in words) [2]
O=C(O)C[S+]([O-])c1ccc2c3c(cccc13)C(=O)c1ccccc1-2 (centres unmarked) [Compound 111],without significant cytotoxicity,–
COc1ccc2c(Cc3c4ccccc4cc4ccccc34)cncc2c1O [Compound 1334],–,lesser inhibitory activity
